Measurements taken from patent EP1935986B1, “Luminogenic and fluorogenic compounds and methods to detect molecules or conditions” (priority 2005, dated 2006).

Experiments:
[1] = molecular target: T1, CYP2C9 (Homo sapiens, UniProt P11712); experiment: Two-step luminescent P450 screen of luciferin derivatives; type: biochemical; settings: 50 µM substrate, 1 pmole P450, result in words
T1 construct: purchased Discovery Labware (BD/Gentest); host or cells: insect cell expression system (membrane fractions)
T1 sequence (P11712 whole entry): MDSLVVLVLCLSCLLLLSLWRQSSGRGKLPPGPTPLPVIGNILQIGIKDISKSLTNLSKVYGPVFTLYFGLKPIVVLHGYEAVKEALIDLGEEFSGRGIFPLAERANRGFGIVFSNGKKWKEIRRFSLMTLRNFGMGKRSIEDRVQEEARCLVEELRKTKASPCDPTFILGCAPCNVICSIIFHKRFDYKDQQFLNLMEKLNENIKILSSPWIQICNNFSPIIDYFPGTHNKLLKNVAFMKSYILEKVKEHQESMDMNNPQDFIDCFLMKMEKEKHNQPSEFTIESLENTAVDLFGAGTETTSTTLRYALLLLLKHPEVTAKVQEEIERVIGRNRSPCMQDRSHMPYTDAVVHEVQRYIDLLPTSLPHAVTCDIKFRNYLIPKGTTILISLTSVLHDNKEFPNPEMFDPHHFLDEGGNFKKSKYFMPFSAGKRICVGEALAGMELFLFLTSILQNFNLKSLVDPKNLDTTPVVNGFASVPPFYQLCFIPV
Experimental: (§1) P450s are Supersomes™ purchased from Discovery Labware (BD/Gentest). […] HLM is human liver microsomes.
(§2) 1X substrate concentration: 50 µM.

[2] = molecular target: T2, CYP4A11 (Homo sapiens, UniProt Q02928); experiment: as above; type: biochemical; settings: result in words
T2 construct: purchased Discovery Labware (BD/Gentest); host or cells: insect cell expression system (membrane fractions)
T2 sequence (Q02928 5-519): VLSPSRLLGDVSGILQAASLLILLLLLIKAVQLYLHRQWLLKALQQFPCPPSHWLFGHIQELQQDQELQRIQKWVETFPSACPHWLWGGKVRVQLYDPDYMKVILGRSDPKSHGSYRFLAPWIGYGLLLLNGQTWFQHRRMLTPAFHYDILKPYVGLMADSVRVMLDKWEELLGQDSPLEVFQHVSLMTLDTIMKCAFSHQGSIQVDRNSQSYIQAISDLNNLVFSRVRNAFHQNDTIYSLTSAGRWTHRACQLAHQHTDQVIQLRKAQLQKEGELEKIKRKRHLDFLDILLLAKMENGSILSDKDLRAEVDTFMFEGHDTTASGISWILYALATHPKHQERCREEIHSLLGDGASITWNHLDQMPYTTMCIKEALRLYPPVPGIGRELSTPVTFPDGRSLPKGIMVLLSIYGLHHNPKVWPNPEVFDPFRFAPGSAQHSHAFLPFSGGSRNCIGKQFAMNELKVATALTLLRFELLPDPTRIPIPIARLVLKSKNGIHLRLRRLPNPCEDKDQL
Experimental: as §1, §2

[3] = molecular target: T3, CYP1A2 (Homo sapiens, UniProt P05177); experiment: as above; type: biochemical; settings: 50 µM substrate, 1 pmole P450, result in words
T3 construct: purchased Discovery Labware (BD/Gentest); host or cells: insect cell expression system (membrane fractions)
T3 sequence (P05177 2-516 limits assumed): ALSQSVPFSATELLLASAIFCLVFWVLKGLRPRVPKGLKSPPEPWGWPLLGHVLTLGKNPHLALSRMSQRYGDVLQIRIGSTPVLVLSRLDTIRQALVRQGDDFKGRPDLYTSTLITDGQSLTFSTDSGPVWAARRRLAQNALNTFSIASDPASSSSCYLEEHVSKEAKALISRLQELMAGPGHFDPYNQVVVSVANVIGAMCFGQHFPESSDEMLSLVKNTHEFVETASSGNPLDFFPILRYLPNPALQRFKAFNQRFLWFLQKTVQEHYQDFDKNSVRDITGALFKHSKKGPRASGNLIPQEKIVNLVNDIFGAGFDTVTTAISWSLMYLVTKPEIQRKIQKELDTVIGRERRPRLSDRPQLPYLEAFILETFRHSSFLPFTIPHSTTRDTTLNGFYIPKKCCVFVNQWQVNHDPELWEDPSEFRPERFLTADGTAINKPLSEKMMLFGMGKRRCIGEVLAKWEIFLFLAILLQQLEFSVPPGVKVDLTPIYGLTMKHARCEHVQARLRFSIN
Experimental: as §1, §2

[4] = molecular target: T4, CYP2C8 (Homo sapiens, UniProt P10632); experiment: as above; settings: 50 µM substrate, 1 pmole P450, result in words
T4 sequence (P10632 1-490): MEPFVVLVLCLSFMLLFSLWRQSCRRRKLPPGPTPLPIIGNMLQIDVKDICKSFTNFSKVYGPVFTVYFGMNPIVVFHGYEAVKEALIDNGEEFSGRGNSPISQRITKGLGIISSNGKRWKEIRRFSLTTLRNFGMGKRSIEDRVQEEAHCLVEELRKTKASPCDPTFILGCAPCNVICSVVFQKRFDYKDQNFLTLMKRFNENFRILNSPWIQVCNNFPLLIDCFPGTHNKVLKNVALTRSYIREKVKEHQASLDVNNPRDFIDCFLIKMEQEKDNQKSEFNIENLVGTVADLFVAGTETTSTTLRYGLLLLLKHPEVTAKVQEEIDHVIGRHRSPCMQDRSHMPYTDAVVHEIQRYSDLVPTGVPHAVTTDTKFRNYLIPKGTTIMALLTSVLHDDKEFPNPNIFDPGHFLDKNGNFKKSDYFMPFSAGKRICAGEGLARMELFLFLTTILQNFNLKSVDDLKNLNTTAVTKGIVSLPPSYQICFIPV

[5] = molecular target: T5, CYP1A1 (Homo sapiens, UniProt P04798); experiment: as above; settings: 50 µM substrate, 1 pmole P450, 37°C 30 minutes; result in words
T5 sequence (P04798 1-512): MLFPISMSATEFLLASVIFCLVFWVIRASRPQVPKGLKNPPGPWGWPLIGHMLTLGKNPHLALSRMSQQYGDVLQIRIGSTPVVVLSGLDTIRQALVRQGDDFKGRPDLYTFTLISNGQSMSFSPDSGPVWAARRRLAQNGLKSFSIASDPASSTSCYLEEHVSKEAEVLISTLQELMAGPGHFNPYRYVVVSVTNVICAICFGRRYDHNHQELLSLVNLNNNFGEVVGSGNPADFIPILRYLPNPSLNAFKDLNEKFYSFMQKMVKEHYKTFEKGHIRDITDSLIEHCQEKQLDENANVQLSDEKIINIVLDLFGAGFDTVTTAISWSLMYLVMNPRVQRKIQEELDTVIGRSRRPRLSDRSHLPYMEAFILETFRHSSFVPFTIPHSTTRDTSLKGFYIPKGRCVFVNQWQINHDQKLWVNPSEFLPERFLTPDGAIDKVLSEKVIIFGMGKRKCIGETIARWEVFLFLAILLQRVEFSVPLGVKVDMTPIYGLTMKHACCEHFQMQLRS

[6] = molecular target: CYP3A7 (Homo sapiens, UniProt P24462); experiment: as above; settings: result in words
CYP3A7, sequence (P24462 whole entry): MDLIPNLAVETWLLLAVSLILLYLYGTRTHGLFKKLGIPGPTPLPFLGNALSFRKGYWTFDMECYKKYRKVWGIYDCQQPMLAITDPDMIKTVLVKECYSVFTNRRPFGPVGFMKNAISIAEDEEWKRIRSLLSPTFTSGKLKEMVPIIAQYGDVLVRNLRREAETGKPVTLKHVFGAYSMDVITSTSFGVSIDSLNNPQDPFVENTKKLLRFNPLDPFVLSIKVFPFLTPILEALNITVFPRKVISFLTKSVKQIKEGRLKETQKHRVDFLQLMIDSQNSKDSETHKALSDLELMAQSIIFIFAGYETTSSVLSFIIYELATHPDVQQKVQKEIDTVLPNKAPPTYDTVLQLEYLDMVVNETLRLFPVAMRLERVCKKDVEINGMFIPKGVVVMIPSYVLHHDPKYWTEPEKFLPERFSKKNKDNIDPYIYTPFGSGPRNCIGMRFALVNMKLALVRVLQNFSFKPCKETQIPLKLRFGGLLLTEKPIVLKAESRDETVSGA

[7] = molecular target: T6, CYP2D6 (Homo sapiens, UniProt P10635); experiment: as above; type: biochemical; settings: result in words
T6 construct: purchased Discovery Labware (BD/Gentest); host or cells: insect cell expression system (membrane fractions)
T6 sequence (P10635 whole entry): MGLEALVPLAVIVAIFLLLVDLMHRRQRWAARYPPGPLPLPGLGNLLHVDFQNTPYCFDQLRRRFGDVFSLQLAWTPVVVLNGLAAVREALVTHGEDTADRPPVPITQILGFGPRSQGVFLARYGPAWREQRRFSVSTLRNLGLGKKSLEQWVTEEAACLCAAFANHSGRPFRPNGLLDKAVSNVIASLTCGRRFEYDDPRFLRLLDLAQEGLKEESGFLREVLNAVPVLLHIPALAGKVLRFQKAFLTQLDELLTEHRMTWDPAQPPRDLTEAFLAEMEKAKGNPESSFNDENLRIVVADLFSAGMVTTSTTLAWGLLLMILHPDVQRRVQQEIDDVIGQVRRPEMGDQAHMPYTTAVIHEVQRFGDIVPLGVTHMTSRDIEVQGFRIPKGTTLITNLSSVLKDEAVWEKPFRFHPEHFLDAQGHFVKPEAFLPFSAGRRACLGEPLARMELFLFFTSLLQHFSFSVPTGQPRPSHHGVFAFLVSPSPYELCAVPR
Experimental: as §1, §2
(§3) For Figure 20, 1 or 5 picomoles of recombinant CYP2D6 or CYP2C19 membrane fractions from an insect cell expression system (SupersomesTM, Discovery Labware) were incubated at 37°C for 60 minutes with 200 µM D-luciferin 6' methyl ether (luciferin-ME) in 50 mM (CYP2C19) or 100 mM (CYP2D6) KPO4 (pH 7.4) with an NADPH regenerating system (as described above) in a volume of 50 µl. […] For Figure 20, the panel of human P450s was screened as described above.

[8] = molecular target: T7, CYP2C19 (Homo sapiens, UniProt P33261); experiment: as above; type: biochemical; settings: for P450 activity / selectivity with the derivative as substrate: result in words
T7 construct: purchased Discovery Labware (BD/Gentest); host or cells: insect cell expression system (membrane fractions)
T7 sequence (P33261 whole entry): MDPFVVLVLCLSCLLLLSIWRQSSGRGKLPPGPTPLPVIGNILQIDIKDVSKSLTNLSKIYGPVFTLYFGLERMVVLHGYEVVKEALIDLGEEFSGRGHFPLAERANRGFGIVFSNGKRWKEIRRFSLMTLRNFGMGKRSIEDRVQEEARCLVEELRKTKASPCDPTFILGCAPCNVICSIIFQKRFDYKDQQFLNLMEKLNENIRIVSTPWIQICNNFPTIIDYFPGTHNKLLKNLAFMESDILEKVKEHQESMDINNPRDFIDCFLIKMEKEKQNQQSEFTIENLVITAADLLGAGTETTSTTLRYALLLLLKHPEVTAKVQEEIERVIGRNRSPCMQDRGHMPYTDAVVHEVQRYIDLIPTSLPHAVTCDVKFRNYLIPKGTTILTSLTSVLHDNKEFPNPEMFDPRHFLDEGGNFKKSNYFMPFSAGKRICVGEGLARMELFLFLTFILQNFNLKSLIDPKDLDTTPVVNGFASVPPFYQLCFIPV
Experimental: as §1, §2, §3

[9] = molecular target: T8, QuantiLum Luciferase (Photinus pyralis, UniProt P08659); experiment: Scaffolds: light emission of luciferin derivatives with QuantiLum luciferase alone, + Co A, + DTT, + Co A and DTT; type: biochemical, firefly
T8 construct: purchased Promega Corporation E170
T8 sequence (P08659 whole entry): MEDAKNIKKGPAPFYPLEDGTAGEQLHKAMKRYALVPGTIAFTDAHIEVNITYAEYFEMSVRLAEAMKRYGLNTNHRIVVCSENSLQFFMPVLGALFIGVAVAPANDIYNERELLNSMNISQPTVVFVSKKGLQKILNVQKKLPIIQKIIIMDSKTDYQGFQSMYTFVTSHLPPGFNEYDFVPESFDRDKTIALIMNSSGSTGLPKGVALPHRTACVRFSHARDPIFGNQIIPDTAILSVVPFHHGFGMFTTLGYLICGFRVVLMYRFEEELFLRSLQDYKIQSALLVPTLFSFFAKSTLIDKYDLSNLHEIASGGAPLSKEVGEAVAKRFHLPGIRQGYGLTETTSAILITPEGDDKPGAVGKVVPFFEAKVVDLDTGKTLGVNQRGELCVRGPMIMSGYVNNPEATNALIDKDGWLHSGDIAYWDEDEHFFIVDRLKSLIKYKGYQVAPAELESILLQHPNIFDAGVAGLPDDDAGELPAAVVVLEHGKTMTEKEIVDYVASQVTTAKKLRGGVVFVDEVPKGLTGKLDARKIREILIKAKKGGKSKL
Experimental: The DTT, Coenzyme A, and QuantiLum stock solutions are the same as those described herein.
This solution was diluted 1:1 with water to produce an enzyme solution labeled "No addition." This solution was diluted 1:1 with 400 mM DTT, pH 8.0 to produce a solution labeled +DTT. This solution was diluted 1:1 with 4 mM Coenzyme A to produce a solution labeled + Co A. Finally, this solution was diluted 1:1 with a solution having both 4 mM Coenzyme A and 400 mM DTT to produce a solution labeled +Co A & DTT.
50 µl samples of these solutions were placed in the wells of luminometer microtiter plates, row A to row G, respeutivly. Row H of the plates was given 50 µl of water.
Reactions in these plates were initiated by addition of 50 µl of solution containing QuantiLum luciferase using a 12 channel micropipette. The solutions added to the rows were: columns 1, 5, and 9 - no addition solution; columns 2, 6, and 10 - + Co A solution; columns 3, 7, and 11 + DTT solution, and; columns 4, 8, and 12 - + Co A and DTT solution. After addition of the enzyme solution to the first row on every plate, a timer was started. After addition of the enzyme solution to the last row on each plate, the plate was sealed and read on a Veritas luminometer.

## COc1cc(OC)c2nc(C3=NC(C(=O)O)CS3)sc2c1 (centres unmarked) [4-(O-methyl)-6-(O-methyl)-luciferin]
[1]
  P450 activity / selectivity with the derivative as substrate: enhanced selectivity
[1]; listed as line 12
  P450 activity / selectivity with the derivative as substrate: preferred substrate
[2]
  P450 activity / selectivity with the derivative as substrate: did not react
[3]
  P450 activity / selectivity with the derivative as substrate: enhanced selectivity
[3]; listed as line 12
  P450 activity / selectivity with the derivative as substrate: preferred substrate
[4]
  P450 activity / selectivity with the derivative as substrate: enhanced selectivity
[4]; listed as line 12
  P450 activity / selectivity with the derivative as substrate: preferred substrate
[5]
  P450 activity / selectivity with the derivative as substrate: preferred substrate

## COc1cc(C)c2nc(C3=NC(C(=O)O)CS3)sc2c1 (centres unmarked) [4-methyl-6-(O-methyl)-luciferin]
[1]
  P450 activity / selectivity with the derivative as substrate: enhanced selectivity
[1]; listed as line 11
  P450 activity / selectivity with the derivative as substrate: preferred substrate
[2]
  P450 activity / selectivity with the derivative as substrate: did not react
[3]
  P450 activity / selectivity with the derivative as substrate: enhanced selectivity
[3]; listed as line 11
  P450 activity / selectivity with the derivative as substrate: preferred substrate
[4]
  P450 activity / selectivity with the derivative as substrate: enhanced selectivity
[4]; listed as line 11
  P450 activity / selectivity with the derivative as substrate: preferred substrate
[5]
  P450 activity / selectivity with the derivative as substrate: preferred substrate

## O=C(O)[C@H]1CSC(c2nc3ccc(OCSc4ccc(Cl)cc4)cc3s2)=N1 [6'-p-chlorophenylthiol-methoxy-luciferin, 6-(4-Chloro-phenylthiomethoxy) luciferin]
[6]
  P450 activity / selectivity with the derivative as substrate: showed selectivity

## COC(=O)[C@H]1CSC(c2nc3ccc(OC)cc3s2)=N1 [carboxyl ester of luciferin-ME, carboxyl methyl ester of luciferin-ME]
[7]
  P450 activity / selectivity with the derivative as substrate: substantially increased
[8]
  P450 activity / selectivity with the derivative as substrate: reacted strongly

## O=C(OCc1cccnc1)[C@H]1CSC(c2nc3ccccc3s2)=N1 [carboxyl picolinyl ester of luciferin-H, m-picolinyl ester of luciferin-H]
[8]; purified recombinant CYP2C19 substantially free of carboxylesterases, 2 step assay
  signal when the esterase was not added, relative to the plus esterase signal: less than 10%
[8]
  P450 activity / selectivity with the derivative as substrate: showed preference
[3]
  P450 activity / selectivity with the derivative as substrate: showed preference
[5]
  P450 activity / selectivity with the derivative as substrate: showed preference

## O=C(O)[C@H]1CSC(c2nc3ccc(OCc4cccnc4)cc3s2)=N1 [luciferin 6' 3-picolinyl ether, reference compound]
[6]
  P450 activity / selectivity with the derivative as substrate: cross reacted significantly

## COc1ccc2nc(C3=N[C@@H](C(=O)O)CS3)sc2c1 [luciferin 6-methyl ether, D-luciferin 6' methyl ether, reference compound]
[7]
  P450 activity / selectivity with the derivative as substrate: extremely low activity
[7]; listed as Luciferin 6-methyl ether
  P450 activity / selectivity with the derivative as substrate: some activity
[8]
  P450 activity / selectivity with the derivative as substrate: some activity
[9]; Derivative Conc. 1.07, Alone
  light emission values: 1197
[9]; Derivative Conc. 1.07, Co A
  light emission values: 1523
[9]; Derivative Conc. 1.07, Co A + DTT
  light emission values: 3180
[9]; Derivative Conc. 1.07, DTT
  light emission values: 3160
[9]; Derivative Conc. 3.13, Alone
  light emission values: 1053
[9]; Derivative Conc. 3.13, Co A
  light emission values: 1360
[9]; Derivative Conc. 3.13, Co A + DTT
  light emission values: 2853
[9]; Derivative Conc. 3.13, DTT
  light emission values: 3332
[9]; Derivative Conc. 6.25, Alone
  light emission values: 1240
[9]; Derivative Conc. 6.25, Co A
  light emission values: 1673
[9]; Derivative Conc. 6.25, Co A + DTT
  light emission values: 2882
[9]; Derivative Conc. 6.25, DTT
  light emission values: 2844
[9]; Derivative Conc. 12.5, Alone
  light emission values: 1563
[9]; Derivative Conc. 12.5, Co A
  light emission values: 1768
[9]; Derivative Conc. 12.5, Co A + DTT
  light emission values: 2510
[9]; Derivative Conc. 12.5, DTT
  light emission values: 2961
[9]; Derivative Conc. 25, Alone
  light emission values: 2083
[9]; Derivative Conc. 25, Co A
  light emission values: 2224
[9]; Derivative Conc. 25, Co A + DTT
  light emission values: 2992
[9]; Derivative Conc. 25, DTT
  light emission values: 3491
[9]; Derivative Conc. 50, Alone
  light emission values: 2690
[9]; Derivative Conc. 50, Co A
  light emission values: 2704
[9]; Derivative Conc. 50, Co A + DTT
  light emission values: 3635
[9]; Derivative Conc. 50, DTT
  light emission values: 4052
[9]; Derivative Conc. 100, Alone
  light emission values: 3589
[9]; Derivative Conc. 100, Co A
  light emission values: 3389
[9]; Derivative Conc. 100, Co A + DTT
  light emission values: 4550
[9]; Derivative Conc. 100, DTT
  light emission values: 5399

## bis-luciferin-xylyldiether
[6]
  P450 activity / selectivity with the derivative as substrate: selective
